Values quoted from earlier work in patent publication US6436991B1, “Composition and method containing products extracted from Commiphora sp. for prevention and treatment of abnormal cell growth and proliferation in inflammation, neoplasia and cardiovascular disease” (Sabinsa Corporation, priority 2000, dated 2002).

Conditions: literature values; read-out: IC50, DPPH radical scavenging (reported, Chen and Ho 1995)

Molecule | IC50 [µM]
O=C(O)c1cc(O)c(O)c(O)c1 [gallic acid] | 10.6
catechin | 18.6
